Measurements from ChEMBL document CHEMBL4196118, “Discovery of MK-8318, a Potent and Selective CRTh2 Receptor Antagonist for the Treatment of Asthma” (ACS Med Chem Lett, 2018).
Calls of active or inactive are those of the source. No cut-off for these calls is given here.

Key:
[1] = AUC (0 to 6 hrs) in rat at 0.5 mg/kg, iv; format: ADME, organism-based; parameters: time < 6 hr, dose 0.5 mg/kg, route intravenous; details: in vivo
[2] = Intrinsic clearance in rat hepatocytes assessed per million cells; format: ADME, cell-based, Hepatocyte; details: read-out: CLH
[3] = target: T1, Prostaglandin D2 receptor 2 (Homo sapiens, UniProt Q9Y5Y4)
T1 sequence (Q9Y5Y4 whole entry): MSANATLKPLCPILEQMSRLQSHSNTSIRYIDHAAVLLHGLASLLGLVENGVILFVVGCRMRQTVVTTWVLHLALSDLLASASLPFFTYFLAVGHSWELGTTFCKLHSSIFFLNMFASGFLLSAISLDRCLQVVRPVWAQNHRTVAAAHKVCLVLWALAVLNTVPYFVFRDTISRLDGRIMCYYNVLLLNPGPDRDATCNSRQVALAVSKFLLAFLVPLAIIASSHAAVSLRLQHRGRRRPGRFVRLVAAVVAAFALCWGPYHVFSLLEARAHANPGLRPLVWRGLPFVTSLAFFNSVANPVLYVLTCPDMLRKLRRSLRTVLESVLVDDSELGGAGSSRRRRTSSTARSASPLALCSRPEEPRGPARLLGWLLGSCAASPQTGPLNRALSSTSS

[4] = target: T1, Prostaglandin D2 receptor 2; remark: listed apart in the source
Description: Antagonist activity at human CRTh2 expressed in CHOK1 cells assessed as inhibition of PGD2-induced beta-arrestin recruitment incubated for 30 mins followed by PGD2 stimulation measured after 60 mins by PathHunter based chemiluminescence assay

[5] = target: T1, Prostaglandin D2 receptor 2; experiment: biochemical
Description: Displacement of [3H]PGD2 from human CRTh2 expressed in HEK cell membranes after 60 mins by scintillation counting method

[6] = AUC (0 to 6 hrs) in rat at 3 mg/kg, iv; format: ADME, organism-based; parameters: time < 6 hr, dose 3 mg/kg, route intravenous; details: in vivo
Cytochrome P450 3A4 = Cytochrome P450 3A4 (Homo sapiens, UniProt P08684); experiment: Inhibition of CYP3A4 (unknown origin); format: ADME
Cytochrome P450 2C9 = Cytochrome P450 2C9 (Homo sapiens, UniProt P11712); experiment: Inhibition of CYP2C9 (unknown origin); format: ADME
Cytochrome P450 2D6 = Cytochrome P450 2D6 (Homo sapiens, UniProt P10635); experiment: Inhibition of CYP2D6 (unknown origin); format: ADME
[7] = target: T2, Nuclear receptor subfamily 1 group I member 2 (Homo sapiens, UniProt O75469); experiment: Activation of PXR (unknown origin)
T2 sequence (O75469 whole entry): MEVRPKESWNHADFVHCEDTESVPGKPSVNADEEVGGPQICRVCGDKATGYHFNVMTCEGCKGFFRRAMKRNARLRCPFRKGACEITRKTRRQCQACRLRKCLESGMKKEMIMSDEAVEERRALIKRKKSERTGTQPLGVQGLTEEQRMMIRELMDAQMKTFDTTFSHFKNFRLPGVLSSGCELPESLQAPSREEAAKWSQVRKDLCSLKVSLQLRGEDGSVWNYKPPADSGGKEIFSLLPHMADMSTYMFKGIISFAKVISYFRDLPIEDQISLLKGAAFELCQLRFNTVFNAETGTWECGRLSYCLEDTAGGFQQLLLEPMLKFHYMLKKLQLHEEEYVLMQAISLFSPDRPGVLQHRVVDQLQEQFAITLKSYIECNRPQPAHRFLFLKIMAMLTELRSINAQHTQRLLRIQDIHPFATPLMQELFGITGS

[8] = Clearance in rat plasma at 3 mg/kg, iv; format: ADME, organism-based
[9] = Clearance in dog plasma at 1 mg/kg, iv; format: ADME, organism-based, Canis lupus familiaris
[10] = Clearance in monkey plasma at 1 mg/kg, iv; format: ADME, organism-based, Macaca mulatta; details: rhesus monkey
[11] = Volume of distribution in rat at 3 mg/kg, iv; format: ADME, organism-based; details: in vivo
[12] = Volume of distribution in dog at 1 mg/kg, iv; format: ADME, organism-based, Canis lupus familiaris; details: in vivo
[13] = Volume of distribution in monkey at 1 mg/kg, iv; format: ADME, organism-based, Macaca mulatta; details: rhesus monkey, in vivo
[14] = Half life in rat at 3 mg/kg, iv; format: ADME, organism-based; details: in vivo
[15] = Half life in dog at 1 mg/kg, iv; format: ADME, organism-based, Canis lupus familiaris; details: in vivo
[16] = Half life in monkey at 1 mg/kg, iv; format: ADME, organism-based, Macaca mulatta; details: rhesus monkey, in vivo
[17] = AUC in rat at 3 mg/kg, iv; format: ADME, organism-based; details: in vivo
[18] = AUC in dog at 1 mg/kg, iv; format: ADME, organism-based, Canis lupus familiaris; details: in vivo
[19] = AUC in monkey at 1 mg/kg, iv; format: ADME, organism-based, Macaca mulatta; details: rhesus monkey, in vivo
[20] = Cmax in rat at 10 mg/kg, po; format: ADME, organism-based; parameters: dose 10 mg/kg, route oral; details: in vivo
[21] = Cmax in dog at 2 mg/kg, po; format: ADME, organism-based, Canis lupus familiaris; parameters: dose 2 mg/kg, route oral; details: in vivo
[22] = Cmax in rhesus monkey at 10 mg/kg, po; format: ADME, organism-based, Macaca mulatta; parameters: dose 10 mg/kg, route oral; details: in vivo
[23] = Tmax in rat at 10 mg/kg, po; format: ADME, organism-based; details: in vivo
[24] = Tmax in dog at 2 mg/kg, po; format: ADME, organism-based, Canis lupus familiaris; details: in vivo
[25] = Tmax in rhesus monkey at 10 mg/kg, po; format: ADME, organism-based, Macaca mulatta; details: in vivo
[26] = AUC in rat at 10 mg/kg, po; format: ADME, organism-based; details: in vivo
[27] = AUC in dog at 2 mg/kg, po; format: ADME, organism-based, Canis lupus familiaris; details: in vivo
[28] = AUC in rhesus monkey at 10 mg/kg, po; format: ADME, organism-based, Macaca mulatta; details: in vivo
[29] = Oral bioavailability in rat at 10 mg/kg; format: ADME, organism-based; details: in vivo
[30] = Oral bioavailability in dog at 2 mg/kg; format: ADME, organism-based, Canis lupus familiaris; details: in vivo
[31] = Oral bioavailability in rhesus monkey at 10 mg/kg; format: ADME, organism-based, Macaca mulatta; details: in vivo
Ovis aries [32] = experiment: Anti-asthmatic activity in sheep lung allergen model assessed as inhibition of antigen-induced late airway response at 1 mg/kg administered as 4 hrs iv infusion starting at 1 hr prior to antigen challenge measured 4 to 8 hrs post antigen challenge; format: functional, organism-based
Ovis aries [33] = experiment: Anti-asthmatic activity in sheep lung allergen model assessed as inhibition of antigen-induced airway hyper-responsiveness at 1 mg/kg administered as 4 hrs iv infusion starting at 1 hr prior to antigen challenge measured 24 hrs post antigen challenge; format: functional, organism-based
Rattus norvegicus [34] = experiment: Antiinflammatory activity in Brown Norway rat assessed as inhibition of OVA-induced eosinophils levels in BAL cells at 3 mg/kg, po qd for 3 days followed by aerosolized OVA challenge for 30 mins administered 2 hrs post last compound dose on day 3 measured 24 hrs post aerosolized OVA challenge relative to control; format: functional
Rattus norvegicus [35] = experiment: Antiinflammatory activity in Brown Norway rat assessed as inhibition of OVA-induced neutrophils levels in BAL cells at 3 mg/kg, po qd for 3 days followed by aerosolized OVA challenge for 30 mins administered 2 hrs post last compound dose on day 3 measured 24 hrs post aerosolized OVA challenge relative to control; format: functional
Rattus norvegicus [36] = experiment: Antiinflammatory activity in Brown Norway rat assessed as inhibition of OVA-induced total cell levels in BAL cells at 3 mg/kg, po qd for 3 days followed by aerosolized OVA challenge for 30 mins administered 2 hrs post last compound dose on day 3 measured 24 hrs post aerosolized OVA challenge relative to control; format: functional
Rattus norvegicus [37] = experiment: Antiinflammatory activity in Brown Norway rat assessed as inhibition of OVA-induced neutrophils levels in BAL cells at 10 mg/kg, po qd for 3 days followed by aerosolized OVA challenge for 30 mins administered 2 hrs post last compound dose on day 3 measured 24 hrs post aerosolized OVA challenge relative to control; format: functional
Rattus norvegicus [38] = experiment: Antiinflammatory activity in Brown Norway rat assessed as inhibition of OVA-induced eosinophils levels in BAL cells at 10 mg/kg, po qd for 3 days followed by aerosolized OVA challenge for 30 mins administered 2 hrs post last compound dose on day 3 measured 24 hrs post aerosolized OVA challenge relative to control; format: functional
Rattus norvegicus [39] = experiment: Antiinflammatory activity in Brown Norway rat assessed as inhibition of OVA-induced total cell levels in BAL cells at 10 mg/kg, po qd for 3 days followed by aerosolized OVA challenge for 30 mins administered 2 hrs post last compound dose on day 3 measured 24 hrs post aerosolized OVA challenge relative to control; format: functional
Rattus norvegicus [40] = experiment: Antiinflammatory activity in Brown Norway rat assessed as inhibition of OVA-induced eosinophils levels in BAL cells at 30 mg/kg, po qd for 3 days followed by aerosolized OVA challenge for 30 mins administered 2 hrs post last compound dose on day 3 measured 24 hrs post aerosolized OVA challenge relative to control; format: functional
Rattus norvegicus [41] = experiment: Antiinflammatory activity in Brown Norway rat assessed as inhibition of OVA-induced neutrophils levels in BAL cells at 30 mg/kg, po qd for 3 days followed by aerosolized OVA challenge for 30 mins administered 2 hrs post last compound dose on day 3 measured 24 hrs post aerosolized OVA challenge relative to control; format: functional
Rattus norvegicus [42] = experiment: Antiinflammatory activity in Brown Norway rat assessed as inhibition of OVA-induced total cell levels in BAL cells at 30 mg/kg, po qd for 3 days followed by aerosolized OVA challenge for 30 mins administered 2 hrs post last compound dose on day 3 measured 24 hrs post aerosolized OVA challenge relative to control; format: functional
[43] = target: T1, Prostaglandin D2 receptor 2; experiment: […] activity at human CRTh2 expressed in HEK cells assessed as forskolin-induced intracellular cAMP accumulation by ELISA based chemiluminescence assay; format: functional, cell-based
[44] = AUC (0 to 6 hrs) in rat at 2 mg/kg, iv; format: ADME, organism-based; parameters: time < 6 hr, dose 2 mg/kg, route intravenous; details: in vivo

Cytochrome P450 2D6, sequence (P10635 whole entry): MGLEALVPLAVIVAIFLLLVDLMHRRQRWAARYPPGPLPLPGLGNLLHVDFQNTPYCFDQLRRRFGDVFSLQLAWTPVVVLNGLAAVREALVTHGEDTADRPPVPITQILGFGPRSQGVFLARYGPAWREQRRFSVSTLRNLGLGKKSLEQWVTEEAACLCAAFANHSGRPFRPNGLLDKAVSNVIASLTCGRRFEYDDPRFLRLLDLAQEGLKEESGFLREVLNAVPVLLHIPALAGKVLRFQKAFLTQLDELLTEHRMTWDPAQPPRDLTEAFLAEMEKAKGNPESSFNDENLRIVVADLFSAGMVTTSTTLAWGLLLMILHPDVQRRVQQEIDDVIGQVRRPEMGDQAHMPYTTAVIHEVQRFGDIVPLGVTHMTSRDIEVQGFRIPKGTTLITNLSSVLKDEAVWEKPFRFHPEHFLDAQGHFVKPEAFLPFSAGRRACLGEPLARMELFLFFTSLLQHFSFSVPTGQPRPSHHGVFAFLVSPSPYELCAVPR
Cytochrome P450 2C9, sequence (P11712 whole entry): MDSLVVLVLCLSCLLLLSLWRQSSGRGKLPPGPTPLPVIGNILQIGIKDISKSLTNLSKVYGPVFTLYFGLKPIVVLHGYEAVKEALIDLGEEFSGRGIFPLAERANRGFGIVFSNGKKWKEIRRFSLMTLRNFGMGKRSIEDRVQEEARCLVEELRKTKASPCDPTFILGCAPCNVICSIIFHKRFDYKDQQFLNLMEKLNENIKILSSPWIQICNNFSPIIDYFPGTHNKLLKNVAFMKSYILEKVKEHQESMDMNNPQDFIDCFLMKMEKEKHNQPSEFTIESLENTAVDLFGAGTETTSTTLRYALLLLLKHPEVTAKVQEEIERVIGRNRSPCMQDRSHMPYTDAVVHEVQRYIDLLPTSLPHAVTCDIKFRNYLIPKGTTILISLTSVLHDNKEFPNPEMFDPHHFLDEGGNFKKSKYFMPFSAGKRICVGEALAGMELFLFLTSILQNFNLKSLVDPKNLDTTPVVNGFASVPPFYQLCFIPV
Cytochrome P450 3A4, sequence (P08684 whole entry): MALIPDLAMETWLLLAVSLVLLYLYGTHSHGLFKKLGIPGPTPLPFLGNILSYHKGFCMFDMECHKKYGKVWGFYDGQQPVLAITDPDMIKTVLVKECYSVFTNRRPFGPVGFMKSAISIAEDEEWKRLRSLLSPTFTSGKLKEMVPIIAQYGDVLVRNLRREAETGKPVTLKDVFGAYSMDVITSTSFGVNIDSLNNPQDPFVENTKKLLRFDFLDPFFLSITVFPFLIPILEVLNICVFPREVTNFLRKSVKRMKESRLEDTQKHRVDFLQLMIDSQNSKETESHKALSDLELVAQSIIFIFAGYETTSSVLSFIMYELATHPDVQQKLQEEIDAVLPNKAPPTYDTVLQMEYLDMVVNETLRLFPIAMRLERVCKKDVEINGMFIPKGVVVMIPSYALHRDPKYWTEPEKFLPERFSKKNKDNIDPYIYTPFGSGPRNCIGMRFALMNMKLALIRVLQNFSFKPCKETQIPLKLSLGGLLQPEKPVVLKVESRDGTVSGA

## O=C(O)CCC(=O)N(C1CC1)[C@H]1c2ccccc2N(C(=O)c2ccc(F)cc2)[C@H]2CC[C@H]21
[1]
  AUC(0-t) at 6 h: 0.46 µM·h
[2]
  hepatocyte CLint: 14 µL/min/1e6 cells
[3]
  IC50: 0.02 µM
[4]
  IC50: 0.012 µM
[5]
  Ki: 0.0073 µM

## O=C(O)CCC(=O)N(C1CC1)[C@H]1c2cc(F)ccc2N(C(=O)c2ccc(OC(F)(F)F)cc2)[C@H]2CCC[C@H]21
[6]
  AUC(0-t) at 6 h: 3.35 µM·h
Cytochrome P450 3A4
  inhibition (INH): Not Active
Cytochrome P450 2C9
  inhibition (INH): Not Active
Cytochrome P450 2D6
  inhibition (INH): Not Active
[7]
  Activity: Not Active
[8]
  clearance: 1.75 L/h/kg
[9]
  clearance: 0.564 L/h/kg
[10]
  clearance: 0.984 L/h/kg
[11]
  Vd: 5.8 L/kg
[12]
  Vd: 2.4 L/kg
[13]
  Vd: 5.8 L/kg
[14]
  half-life: 7.5 h
[15]
  half-life: 10.4 h
[16]
  half-life: 12.9 h
[17]
  AUC: 3.4 µM·h
[18]
  AUC: 3.46 µM·h
[19]
  AUC: 1.92 µM·h
[20]
  Cmax: 2.07 µM
[21]
  Cmax: 2.47 µM
[22]
  Cmax: 5.69 µM
[23]
  Tmax: 0.58 h
[24]
  Tmax: 0.42 h
[25]
  Tmax: 0.42 h
[26]
  AUC: 6.77 µM·h
[27]
  AUC: 8.51 µM·h
[28]
  AUC: 6.76 µM·h
[29]
  bioavailability: 61%
[30]
  bioavailability: 121%
[31]
  bioavailability: 28%
Ovis aries [32]
  inhibition: Active
Ovis aries [33]
  inhibition: Active
Rattus norvegicus [34]
  inhibition in vivo at 3 mg/kg: 36%
Rattus norvegicus [35]
  inhibition in vivo at 3 mg/kg: 56%
Rattus norvegicus [36]
  inhibition in vivo at 3 mg/kg: 52%
Rattus norvegicus [37]
  inhibition in vivo at 10 mg/kg: 49%
Rattus norvegicus [38]
  inhibition in vivo at 10 mg/kg: 65%
Rattus norvegicus [39]
  inhibition in vivo at 10 mg/kg: 68%
Rattus norvegicus [40]
  inhibition in vivo at 30 mg/kg: 58%
Rattus norvegicus [41]
  inhibition in vivo at 30 mg/kg: 77%
Rattus norvegicus [42]
  inhibition in vivo at 30 mg/kg: 78%
[3]
  IC50: 0.008 µM
[4]
  IC50: 0.0035 µM
[5]
  Ki: 0.005 µM

## CCN(c1nc(C(=O)O)cs1)[C@H]1c2ccccc2N(C(=O)OCc2ccccc2)[C@H]2CCC[C@@H]12
[43]
  EC50: 0.012 µM
[3]
  IC50: 2.92 µM
[5]
  Ki: 0.051 µM

## O=C(O)CCC(=O)N(C1CC1)[C@H]1c2cc(F)ccc2N(C(=O)c2ccc(SC(F)(F)F)cc2)[C@H]2CCC[C@H]21
[44]
  AUC(0-t) at 6 h: 1.87 µM·h
[3]
  IC50: 0.012 µM
[4]
  IC50: 0.0024 µM
[5]
  Ki: 0.0084 µM
